{
  "source": "patent US10800792B2",
  "about": "“Inhibitors of Bruton's tyrosine kinase and method of their use” (JANSSEN PHARMACEUTICA NV, priority 2015, dated 2020)",
  "data": [
    {"biological_target": "unphosphorylated-BTK kinase domain (UP-BTK), GST-tagged human BTK (389-659aa) (Homo sapiens (Human), UniProt Q06187)", "sequence (Q06187 389-659)": "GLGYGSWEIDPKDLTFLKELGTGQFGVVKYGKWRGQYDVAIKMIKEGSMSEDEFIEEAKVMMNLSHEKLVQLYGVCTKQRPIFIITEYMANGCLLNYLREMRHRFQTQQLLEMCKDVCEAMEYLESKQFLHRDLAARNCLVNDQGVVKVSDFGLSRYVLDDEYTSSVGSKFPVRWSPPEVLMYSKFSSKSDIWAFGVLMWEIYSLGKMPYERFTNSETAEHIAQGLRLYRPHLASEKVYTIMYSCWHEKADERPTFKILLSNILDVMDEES", "assay": "BTK kinase Lanthascreen binding assay", "conditions": "Lanthascreen tracer competition, 60 minutes incubation; pIC50 = negative log of the IC50 in molar", "method_in_brief": "(§1)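 A fluorescent tracer is bound to unphosphorylated BTK; test compound is added to compete it off; the Lanthascreen signal is read and IC50 is fitted, then reported as its negative log in molar.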", "values": [
      {"smiles": "Cc1cc(Oc2ccccc2)ccc1N1C(=O)Nc2c(C(=O)N[C@@H]3CCCN(C=O)C3)sc3nccc1c23", "note": "[Example 885, (R)—N-(1-Formylpiperidin-3-yl)-5-(2-methyl-4-phenoxyphenyl)-4-oxo-4,5-dihydro-3H-1-thia-3,5,8-triazaacenaphthylene-2-carboxamide]", "BTK_I_binding pIC50": 7.0},
      {"smiles": "O=C(N[C@@H]1CCCNC1)c1sc2nccc3c2c1NC(=O)N3c1cccc(OC(F)(F)F)c1", "note": "[Example 620, (R)-4-Oxo-N-(piperidin-3-yl)-5-(3-(trifluoromethoxy)phenyl)-4,5-dihydro-3H-1-thia-3,5,8-triazaacenaphthylene-2-carboxamide]", "BTK_I_binding pIC50": "<6"},
      {"smiles": "C=CC(=O)N1CC[C@@H](NC(=O)c2sc3nccc4c3c2NC(=O)N4c2cnc(Oc3ccccc3)nc2C)C1", "note": "(single isomer, unassigned) [Example 724, (R)—N-(1-Acryloylpyrrolidin-3-yl)-5-(*R)-(4-methyl-2-phenoxypyrimidin-5-yl)-4-oxo-4,5-dihydro-3H-1-thia-3,5,8-triazaacenaphthylene-2-carboxamide]", "BTK_I_binding pIC50": 6.1},
      {"smiles": "Cc1cc(Oc2ccccc2)ccc1N1C(=O)Nc2c(C(=O)NC3CCCN(C)C3)sc3nccc1c23", "note": "(stereo not shown) [Example 898, 5-(2-Methyl-4-phenoxyphenyl)-N-(1-methylpiperidin-3-yl)-4-oxo-4,5-dihydro-3H-1-thia-3,5,8-triazaacenaphthylene-2-carboxamide]", "BTK_I_binding pIC50": 6.8},
      {"smiles": "C=CC(=O)N1CCC[C@@H](NC(=O)c2sc3nccc4c3c2NC(=O)N4c2ccc(CC(C)C)cc2)C1", "note": "[Example 750, (R)—N-(1-Acryloylpiperidin-3-yl)-5-(4-isobutylphenyl)-4-oxo-4,5-dihydro-3H-1-thia-3,5,8-triazaacenaphthylene-2-carboxamide]", "BTK_I_binding pIC50": 6.6},
      {"smiles": "Cc1cc(Oc2cccc(COc3ccccc3C#N)c2)ccc1N1C(=O)Nc2c(C(=O)N[C@@H]3CCCN(C(=O)/C(C#N)=C/C4CC4)C3)sc3nccc1c23", "note": "[Example 861, (R,E)-N-(1-(2-Cyano-3-cyclopropylacryloyl)piperidin-3-yl)-5-(4-(3-((2-cyanophenoxy)methyl)phenoxy)-2-methylphenyl)-4-oxo-4,5-dihydro-3H-1-thia-3,5,8-triazaacenaphthylene-2-carboxamide]", "BTK_I_binding pIC50": 7.3},
      {"smiles": "Cc1cc(OC2CCCC2)ncc1N1C(=O)Nc2c(C(=O)N[C@@H]3CCCNC3)sc3nccc1c23", "note": "(single isomer, unassigned) [Example 762, (R)-5-(*R)-(6-(Cyclopentyloxy)-4-methylpyridin-3-yl)-4-oxo-N-(piperidin-3-yl)-4,5-dihydro-3H-1-thia-3,5,8-triazaacenaphthylene-2-carboxamide]", "BTK_I_binding pIC50": "<6"},
      {"smiles": "COc1ccc(N2C(=O)Nc3c(C(=O)N[C@@H]4CCCN(C(=O)/C(C#N)=C/C5CC5)C4)sc4nccc2c34)c(C)c1", "note": "[Example 862, (R,E)-N-(1-(2-Cyano-3-cyclopropylacryloyl)piperidin-3-yl)-5-(4-methoxy-2-methylphenyl)-4-oxo-4,5-dihydro-3H-1-thia-3,5,8-triazaacenaphthylene-2-carboxamide]", "BTK_I_binding pIC50": 7.3},
      {"smiles": "C=CC(=O)N1CCC[C@@H](NC(=O)c2sc3nccc4c3c2NC(=O)N4c2ccc(Oc3ccc(C)nc3)cc2C)C1", "note": "[Example 783, (R)—N-(1-Acryloylpiperidin-3-yl)-5-(2-methyl-4-((6-methylpyridin-3-yl)oxy)phenyl)-4-oxo-4,5-dihydro-3H-1-thia-3,5,8-triazaacenaphthylene-2-carboxamide]", "BTK_I_binding pIC50": 7.1}
    ]},
    {"biological_target": "unphosphorylated-BTK kinase domain (UP-BTK), GST-tagged human BTK (389-659aa) (Homo sapiens (Human), UniProt Q06187)", "assay": "BTK kinase Lanthascreen binding assay", "conditions": "Lanthascreen tracer competition, 60 minutes incubation; pIC50 = negative log of the IC50 in molar; read-out: BTK_I_binding pIC50 (converted)", "method_in_brief": "as §1", "units": {"IC50": "nM"}, "values": [
      {"smiles": "C=CC(=O)N[C@@H]1COC[C@@H]1NC(=O)c1sc2nccc3c2c1NC(=O)N3c1cnc(Oc2ccccc2)cc1C", "note": "(single isomer, unassigned) [Example 752, N-((*3R,*4S)-4-Acrylamidotetrahydrofuran-3-yl)-5-(*S)-(4-methyl-6-phenoxypyridin-3-yl)-4-oxo-4,5-dihydro-3H-1-thia-3,5,8-triazaacenaphthylene-2-carboxamide]", "IC50": 398},
      {"smiles": "Cc1cc(Oc2ccccc2)ccc1N1C(=O)Nc2c(C(=O)NC3CCCNC3)sc3nccc1c23", "note": "(stereo in doubt) [Example 869, (R)-5-(2-Methyl-4-phenoxyphenyl)-4-oxo-N-(piperidin-3-yl)-4,5-dihydro-3H-1-thia-3,5,8-triazaacenaphthylene-2-carboxamide]", "IC50": 50.1}
    ]},
    {"biological_target": "unphosphorylated-BTK kinase domain (UP-BTK), GST-tagged human BTK (389-659aa) (Homo sapiens (Human), UniProt Q06187)", "assay": "BTK kinase Lanthascreen binding assay", "conditions": "pIC50 = negative log of the IC50 in molar; 60 minutes incubation, 50 nM Tracer 236", "method_in_brief": "as §1", "values": [
      {"smiles": "COCCNC(C)(C)C=C(C#N)C(=O)N1CCC[C@@H](NC(=O)c2sc3nccc4c3c2NC(=O)N4c2ccc(Oc3ccccc3)cc2C)C1", "note": "(mixture of isomers) [Example 234, (R,EZ)—N-(1-(2-Cyano-4-((2-methoxyethyl)amino)-4-methylpent-2-enoyl)piperidin-3-yl)-5-(2-methyl-4-phenoxyphenyl)-4-oxo-4,5-dihydro-3H-1-thia-3,5,8-triazaacenaphthylene-2-carboxamide]", "BTK_I_binding pIC50": 7.2},
      {"smiles": "CCN1CC(NC(=O)c2sc3nccc4c3c2NC(=O)N4c2ccc(Oc3ccccc3)cc2C)C1", "note": "[Example 251, N-(1-Ethylazetidin-3-yl)-5-(2-methyl-4-phenoxyphenyl)-4-oxo-4,5-dihydro-3H-1-thia-3,5,8-triazaacenaphthylene-2-carboxamide]", "BTK_I_binding pIC50": 6.4},
      {"smiles": "Cc1cc(Oc2ccccc2)ccc1N1C(=O)Nc2c(C(=O)NC3CCCN(C(=O)C4CC4)C3)sc3nccc1c23", "note": "(stereo not shown) [Example 205, N-(1-(Cyclopropanecarbonyl)piperidin-3-yl)-5-(2-methyl-4-phenoxyphenyl)-4-oxo-4,5-dihydro-3H-1-thia-3,5,8-triazaacenaphthylene-2-carboxamide]", "BTK_I_binding pIC50": 6.8},
      {"smiles": "Cc1cc(Oc2ccccc2)ccc1N1C(=O)Nc2c(C(=O)N[C@H]3CN(C)C[C@@H]3F)sc3nccc1c23", "note": "[Example 186, N-((3S,4S)-4-Fluoro-1-methylpyrrolidin-3-yl)-5-(2-methyl-4-phenoxyphenyl)-4-oxo-4,5-dihydro-3H-1-thia-3,5,8-triazaacenaphthylene-2-carboxamide]", "BTK_I_binding pIC50": 6.8}
    ]},
    {"biological_target": "unphosphorylated-BTK kinase domain (UP-BTK), GST-tagged human BTK (389-659aa) (Homo sapiens (Human), UniProt Q06187)", "assay": "BTK kinase Lanthascreen binding assay", "conditions": "unphosphorylated-BTK kinase domain, 50 nM Tracer 236, 60 minutes; pIC50 = negative log of the IC50 in molar", "method_in_brief": "as §1", "values": [
      {"smiles": "Cc1cc(Oc2ccccc2)ccc1N1C(=O)Nc2c(C(=O)NC3COCCN(C#N)C3)sc3nccc1c23", "note": "(single isomer, unassigned) [Example 485, N-(4-Cyano-1,4-oxazepan-6-yl)-5-(*S)-(2-methyl-4-phenoxyphenyl)-4-oxo-4,5-dihydro-3H-1-thia-3,5,8-triazaacenaphthylene-2-carboxamide]", "BTK_I_binding pIC50": 7.9},
      {"smiles": "C=CS(=O)(=O)N1CC[C@@H](NC(=O)c2sc3nccc4c3c2NC(=O)N4c2ccc(Oc3ccccc3)cc2C)C1", "note": "[Example 369, (R)-5-(2-Methyl-4-phenoxyphenyl)-4-oxo-N-(1-(vinylsulfonyl)pyrrolidin-3-yl)-4,5-dihydro-3H-1-thia-3,5,8-triazaacenaphthylene-2-carboxamide]", "BTK_I_binding pIC50": 7.8},
      {"smiles": "C=CC(=O)N1CCC[C@@H](NC(=O)c2sc3nccc4c3c2NC(=O)N4c2ccc(C)c(Cl)c2)C1", "note": "[Example 584, (R)—N-(1-Acryloylpiperidin-3-yl)-5-(3-chloro-4-methylphenyl)-4-oxo-4,5-dihydro-3H-1-thia-3,5,8-triazaacenaphthylene-2-carboxamide]", "BTK_I_binding pIC50": 6.6},
      {"smiles": "C=CC(=O)N1CC(NC(=O)c2sc3nccc4c3c2NC(=O)N4c2ccc(Oc3ccccc3)cc2C)C1", "note": "[Example 496, N-(1-Acryloylazetidin-3-yl)-5-(*S)-(2-methyl-4-phenoxyphenyl)-4-oxo-4,5-dihydro-3H-1-thia-3,5,8-triazaacenaphthylene-2-carboxamide]", "BTK_I_binding pIC50": 7.4},
      {"smiles": "O=C(NCC1CCCO1)c1sc2nccc3c2c1NC(=O)N3c1ccc(Oc2ccccc2)cc1", "note": "(stereo not shown) [Example 462, 4-Oxo-5-(4-phenoxyphenyl)-N-((tetrahydrofuran-2-yl)methyl)-4,5-dihydro-3H-1-thia-3,5,8-triazaacenaphthylene-2-carboxamide]", "BTK_I_binding pIC50": 6.4},
      {"smiles": "C=CC(=O)N1CCC[C@@H](NC(=O)c2sc3nccc4c3c2NC(=O)N4c2cccc(C3CCCCC3)c2)C1", "note": "[Example 519, (R)—N-(1-Acryloylpiperidin-3-yl)-5-(3-cyclohexylphenyl)-4-oxo-4,5-dihydro-3H-1-thia-3,5,8-triazaacenaphthylene-2-carboxamide]", "BTK_I_binding pIC50": 7.3},
      {"smiles": "Cc1cc(OC(C)C)ccc1N1C(=O)Nc2c(C(=O)N[C@@H]3CCCN(C)C3)sc3nccc1c23", "note": "[Example 332, (R)-5-(4-Isopropoxy-2-methylphenyl)-N-(1-methylpiperidin-3-yl)-4-oxo-4,5-dihydro-3H-1-thia-3,5,8-triazaacenaphthylene-2-carboxamide]", "BTK_I_binding pIC50": 5.5},
      {"smiles": "C=CC(=O)N1CCC[C@@H](NC(=O)c2sc3nccc4c3c2NC(=O)N4c2cccc(OC(F)(F)F)c2)C1", "note": "[Example 568, (R)—N-(1-Acryloylpiperidin-3-yl)-4-oxo-5-(3-(trifluoromethoxy)phenyl)-4,5-dihydro-3H-1-thia-3,5,8-triazaacenaphthylene-2-carboxamide]", "BTK_I_binding pIC50": 7.4}
    ]},
    {"biological_target": "unphosphorylated-BTK kinase domain (UP-BTK), GST-tagged human BTK (389-659aa) (Homo sapiens (Human), UniProt Q06187)", "assay": "BTK kinase Lanthascreen binding assay", "conditions": "unphosphorylated-BTK kinase domain, 50 nM Tracer 236, 60 minutes; pIC50 = negative log of the IC50 in molar; read-out: BTK_I_binding pIC50 (converted)", "method_in_brief": "as §1", "units": {"IC50": "nM"}, "values": [
      {"smiles": "CN(C)C/C=C/C(=O)N1CC[C@@H](NC(=O)c2sc3nccc4c3c2NC(=O)N4c2cccc(-c3ccccc3)c2)C1", "note": "[Example 570, (R,E)-5-([1,1′-Biphenyl]-3-yl)-N-(1-(4-(dimethylamino)but-2-enoyl)pyrrolidin-3-yl)-4-oxo-4,5-dihydro-3H-1-thia-3,5,8-triazaacenaphthylene-2-carboxamide]", "IC50": 63.1},
      {"smiles": "Cc1cc(Oc2ccccc2)ccc1N1C(=O)Nc2c(C(=O)N[C@@H]3CCCN(C(=O)/C(C#N)=C/C4CC4)C3)sc3nccc1c23", "note": "(single isomer, unassigned) [Example 365, (R,E)-N-(1-(2-Cyano-3-cyclopropylacryloyl)piperidin-3-yl)-5-(*R)-(2-methyl-4-phenoxyphenyl)-4-oxo-4,5-dihydro-3H-1-thia-3,5,8-triazaacenaphthylene-2-carboxamide]", "IC50": 50.1}
    ]}
  ]
}
